Assay results published in ChEMBL document CHEMBL1129163, “Nucleosides and nucleotides. 155. synthesis, antitumor effects, and possible enzymatic activation mechanism of 5-phosphatidyl-2-deoxy-2-methylenecytidine (DMDC)” (1996).

What was measured:
Mus musculus [1] = test: Compound was evaluated for the antitumor activity against i.p.-implanted L1210 leukemia in mice for a dose of 0.125 mM/kg/day given orally on days 1-5.; type: functional
Mus musculus [2] = test: Compound was evaluated for the antitumor activity against i.p.-implanted M5076 sarcoma in mice for a dose of 0.125 mM/kg/day on days 1-5.; type: functional
Mus musculus [3] = test: Compound was evaluated for the antitumor activity against i.p.-implanted M5076 sarcoma in mice for a dose of 0.40 mM/kg/day given intraperitoneally on days 1-5.; type: functional
Mus musculus [4] = test: Compound was evaluated for the antitumor activity against i.p.-implanted M5076 sarcoma by measuring 60 day survivor in four mice a dose of 0.125 mM/kg/day given orally on days 1-5.; type: functional
Mus musculus [5] = test: Compound was evaluated for the antitumor activity against i.p.-implanted M5076 sarcoma by measuring 60 day survivor in four mice at a dose of 0.40 mM/kg/day given orally on days 1-5.; type: functional
Mus musculus [6] = test: Compound was evaluated for the antitumor activity against i.p.-implanted M5076 sarcoma in four mice for a dose of 0.40 mM/kg/day given intraperitoneally on days 1-5; Toxic; type: functional, organism-based
Mus musculus [7] = test: Compound was evaluated for the antitumor activity against i.p.-implanted M5076 sarcoma by measuring 60 day survivor in four mice a dose of 0.40 mM/kg/day given orally on days 1-5.; type: functional

## C=C1[C@H](n2ccc(N)nc2=O)O[C@H](COP(=O)([O-])OC[C@@H](COC(=O)CCCCCCCCCCCCCCC)OC(=O)CCCCCCCCCCCCCCC)[C@H]1O.[Na+]
Mus musculus [1]
  ILS: 64%
Mus musculus [2]
  ILS: 121%
Mus musculus [3]
  ILS: >179%
Mus musculus [4]
  Survivors: 1
Mus musculus [5]
  Survivors: 4

## C=C1[C@H](n2cc(F)c(N)nc2=O)O[C@H](COP(=O)([O-])OC[C@H](COC(=O)CCCCCCCCCCCCCCC)OC(=O)CCCCCCCCCCCCCCC)[C@H]1O.[Na+]
Mus musculus [1]
  ILS: 96%
Mus musculus [6]
  ILS: Toxic
Mus musculus [2]
  ILS: >179%
Mus musculus [4]
  Survivors: 3

## C=C1C(n2ccc(N)nc2=O)O[C@H](CO)[C@@H]1O (some centres undefined)
Mus musculus [1]
  ILS: 68%
Mus musculus [2]
  ILS: 44%
Mus musculus [3]
  ILS: 116%
Mus musculus [4]
  Survivors: 0
Mus musculus [7]
  Survivors: 0
